In assay [1] the test system is IL-17 production by CD4 T cells. The assay is described as follows: Human Th17 assay (IL-17 production by CD4 T cells under Th17 differentiation). It counts as cell-based. Conditions: read-out: Human Th17 Assay, IC50 μM. From the text:
The human Th17 assay tests the effect of RORγt modulatory compounds on IL-17 production by CD4 T cells under conditions which favor Th17 differentiation.
Total CD4^+ T cells were isolated from the peripheral blood mononuclear cells (PBMC) of healthy donors using a CD4^+ T cell isolation kit II, following the manufacturer's instructions (Miltenyi Biotec). Cells were resuspended in a medium of RPMI-1640 supplemented with 10% fetal bovine serum, penicillin, streptomycin, glutamate, and β-mercaptoethanol and were added to 96-well plates at 1.5×10^5 per 100 μL per well. 50 μL of compound at titrated concentrations in DMSO were added into each well at final DMSO concentration at 0.2%. Cells were incubated for 1 hour, then 50 μL of Th17 cell differentiation medium was added to each well. The final concentrations of antibodies and cytokines (R&D Systems) in differentiation medium were: 3×10^6/mL anti-CD3/CD28 beads (prepared using human T cell activation/expansion kit, Miltenyi Biotec), 10 μg/mL anti-IL4, 10 μg/mL anti-IFNγ, 10 ng/mL IL1β, 10 ng/mL IL23, 50 ng/mL IL6, 3 ng/mL TGFβ and 20 U/mL IL2. Cells were cultured at 37° C. and 5% CO2 for 3 days. Supernatants were collected and the accumulated IL-17 in culture was measured by using MULTI-SPOT® Cytokine Plate following manufacture's instruction (Meso Scale Discovery). The plate was read using Sector Imager 6000, and IL-17 concentration was extrapolated from the standard curve. The IC50s were determined by GraphPad.

The target in assay [2] is human RORγt ligand binding domain (RORγt LBD) (Homo sapiens (Human), UniProt P51449). The assay is described as follows: RORγt ThermoFluor assay (thermal shift binding affinity). Conditions: estimated from thermal shift. The protocol: This approach is applicable to a wide variety of systems, and rigorous in theoretical interpretation through quantitation of equilibrium binding constants (KD).
The shift in the melting point described as a ΔTm is proportional to the concentration and affinity of the ligand.
RORγt ThermoFluor® Assay Construct
Protein and compound solutions are dispensed into black 384-well polypropylene PCR microplates (Abgene) and overlayed with silicone oil (1 μL, Fluka, type DC 200) to prevent evaporation.
Bar-coded assay plates are robotically loaded onto a thermostatically controlled PCR-type thermal block and then heated at a typical ramp-rate of 1° C./min for all experiments. Fluorescence was measured by continuous illumination with UV light (Hamamatsu LC6) supplied via fiber optic and filtered through a band-pass filter (380-400 nm; >6 OD cutoff). Fluorescence emission of the entire 384-well plate was detected by measuring light intensity using a CCD camera (Sensys, Roper Scientific) filtered to detect 500±25 nm, resulting in simultaneous and independent readings of all 384 wells. Images were collected at each temperature, and the sum of the pixel intensity in a given area of the assay plate was recorded versus temperature. Reference wells contained RORγt without compounds, and the assay conditions were as follows: • 0.065 mg/mL RORγt • 60 μM 1,8-ANS • 100 mM Hepes, pH 7.0 • 10 mM NaCl • 2.5 mM GSH • 0.002% Tween-20
Project compounds were arranged in a pre-dosed mother plate (Greiner Bio-one) wherein compounds are serially diluted in 100% DMSO by 1:2 from a high concentration of 10 mM over 12 columns within a series (column 12 is a reference well containing DMSO, no compound). The compounds were robotically dispensed directly into assay plates (1×=46 nL) using a Hummingbird capillary liquid handling instrument (Digilab). Following compound dispense, protein and dye in buffer was added to achieve the final assay volume of 3 μL, followed by 1 μL of silicone oil.

The target of the next assay is human RORγt LBD (Homo sapiens (Human), UniProt P51449). Description: RORγt reporter assay (GAL4-RORγt LBD luciferase in HEK293T cells). It counts as cell-based. Conditions: for IC50 / RORγt reporter Assay, % inhibition @ 6 μM: HEK293T cells; for IC50: 24 hours compound treatment; for inhibition at 6 µM: HEK-293T, read-out: RORγt reporter Assay, % inhibition @ 6 μM, HEK293T cells, 6 μM. A digest of the protocol:
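HEK293T cells transiently co-transfected with GAL4-DBD–wild-type human RORγt LBD (pBIND) and GAL4-responsive firefly luciferase reporter (pGL4.31); renilla luciferase from pBIND normalises transfection/viability. Cells in phenol-red-free DMEM, 5% lipid-reduced FCS, treated with compound 24 h. Firefly/renilla ratio plotted against compound concentration.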
On the technique in general: Reporter assays use an easily measured gene product as a stand-in for the process of interest.

This is an account of results in patent publication US9290476B2, “Methylene linked quinolinyl modulators of RORγt” (Janssen Pharmaceutica NV, priority 2012, dated 2016).

The structures appear in SMILES notation. Structures can show the parent of a compound that is named as a salt. Where two headings read alike, the source gives them in different places.

Chain of human RORγt ligand binding domain (RORγt LBD) (P51449 other isoform, or with tags, fused parts or gaps): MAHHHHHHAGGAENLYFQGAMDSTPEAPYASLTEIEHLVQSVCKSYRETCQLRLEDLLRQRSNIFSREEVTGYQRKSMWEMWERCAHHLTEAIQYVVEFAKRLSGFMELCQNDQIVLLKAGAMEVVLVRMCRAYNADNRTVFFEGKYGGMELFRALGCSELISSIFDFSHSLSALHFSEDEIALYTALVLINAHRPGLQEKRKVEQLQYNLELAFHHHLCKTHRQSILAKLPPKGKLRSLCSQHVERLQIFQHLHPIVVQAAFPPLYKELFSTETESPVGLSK
Chain of human RORγt LBD (P51449 258-518): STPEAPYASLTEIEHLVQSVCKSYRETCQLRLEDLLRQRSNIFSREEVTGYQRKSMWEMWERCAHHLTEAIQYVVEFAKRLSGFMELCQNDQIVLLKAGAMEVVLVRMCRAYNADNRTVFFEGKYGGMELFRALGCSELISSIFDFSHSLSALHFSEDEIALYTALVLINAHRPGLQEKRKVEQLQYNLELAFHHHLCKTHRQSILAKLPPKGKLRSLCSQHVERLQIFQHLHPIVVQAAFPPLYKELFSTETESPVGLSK

As for `COc1nc2ccc(C(O)(c3ccc(C(F)(F)F)nc3)c3cncn3C)cc2c(Cl)c1Cc1ccc(C(F)(F)F)cc1` (single isomer, unassigned) [Example 62B, (4-Chloro-2-methoxy-3-(4-(trifluoromethyl)benzyl)quinolin-6-yl)(1-methyl-1H-imidazol-5-yl)(6-(trifluoromethyl)pyridin-3-yl)methanol], the IC50 (usually the midpoint of a concentration-inhibition curve) in assay [1] (Homo sapiens, CD4+ T, 72 h) worked out at 0.1 µM.
Turning to `COc1nc2ccc(C(O)(c3ccc(Cl)cc3)c3cncn3C)cc2c(Cl)c1Cc1ccc(-n2cccn2)cc1` (single isomer, unassigned) [Example 33C, (3-(4-(1H-pyrazol-1-yl)benzyl)-4-chloro-2-methoxyquinolin-6-yl)(4-chlorophenyl)(1-methyl-1H-imidazol-5-yl)methanol], in assay [1] (Homo sapiens, CD4+ T, 72 h), the IC50 came to 0.067 µM.
As for `COc1nc2ccc(C(O)(c3cncn3C)C3CCN(C(C)=O)CC3)cc2c(Cl)c1Cc1ccc(-n2cccn2)cc1` (single isomer, unassigned) [Example 60C, 1-(4-((3-(4-(1H-Pyrazol-1-yl)benzyl)-4-chloro-2-methoxyquinolin-6-yl)(hydroxy)(1-methyl-1H-imidazol-5-yl)methyl)piperidin-1-yl)ethanone], the IC50 in assay [1] (human CD4+ T cells, IL-17 after 3 days) was found to be 0.16 µM.
For the compound `COc1nc2ccc(C(O)(c3ccc(Cl)cc3)c3cncn3C)cc2c(Cl)c1Cc1ccc(-n2cccn2)cc1` (stereo not shown) [Example 33A, (3-(4-(1H-Pyrazol-1-yl)benzyl)-4-chloro-2-methoxyquinolin-6-yl)(4-chlorophenyl)(1-methyl-1H-imidazol-5-yl)methanol], the concentration for half-maximal inhibition (IC50) in assay [1] (Homo sapiens, CD4+ T, 72 h) came to 0.14 µM.
With `Cc1nc2ccc(C(O)(c3ccc(Cl)cc3)c3cncn3C)cc2c(C)c1Cc1ccccc1` (stereo not shown) [Example 50, (3-Benzyl-2,4-dimethylquinolin-6-yl)(4-chlorophenyl)(1-methyl-1H-imidazol-5-yl)methanol.TFA], the dissociation constant (Kd) (usually the free concentration of one partner at which half of the binding sites on the other are occupied at equilibrium, for simple one-to-one binding) in assay [2] was 0.32 µM. Also, on human RORγt LBD, the IC50 was greater than 6 µM and the inhibition (as a rule, the change of the read-out against control, counted positive when it falls) at 6 µM amounted to 71%.
On to `COc1nc2ccc(C(O)(c3ccc(F)cc3)c3cncn3C)cc2c(Cl)c1Cc1ccc(S(C)(=O)=O)cc1` (single isomer, unassigned) [Example 54B, (4-chloro-2-methoxy-3-(4-(methylsulfonyl)benzyl)quinolin-6-yl)(4-fluorophenyl)(1-methyl-1H-imidazol-5-yl)methanol], for which, in assay [2], the Kd is 0.84 µM. In addition, at human RORγt LBD, the IC50 was 2 µM and the inhibition at 6 µM was found to be 86%.
Take `COc1nc2ccc(C(O)(c3ccc(N(C)C)cc3)c3cccnc3)cc2c(Cl)c1Cc1ccc(-n2cccn2)cc1` (stereo not shown) [Example 42, (3-(4-(1H-Pyrazol-1-yl)benzyl)-4-chloro-2-methoxyquinolin-6-yl)(4-(dimethylamino)phenyl)(pyridin-3-yl)methanol]: the Kd in assay [2] was 0.36 µM. Also, on human RORγt LBD, 0.18 µM corresponded to half-maximal inhibition (IC50) and the inhibition at 6 µM was 96%.
As for `COc1nc2c(OC)cc(C(O)(c3ccc(C(F)(F)F)nc3)c3cncn3C)cc2c(Cl)c1Cc1ccc(-n2cccn2)cc1` (single isomer, unassigned) [Example 59C, (3-(4-(1H-pyrazol-1-yl)benzyl)-4-chloro-2,8-dimethoxyquinolin-6-yl)(1-methyl-1H-imidazol-5-yl)(6-(trifluoromethyl)pyridin-3-yl)methanol], the Kd in assay [2] is 0.22 µM. Further, on human RORγt LBD, the “RORγt reporter Assay, % inhibition @ 6 μM” value is 108% and inhibition was half-maximal at 0.57 µM (IC50).
As to `CON(C)c1nc2ccc(C(O)(c3ccc(C(F)(F)F)nc3)c3cncn3C)cc2c(Cl)c1Cc1ccc(-n2cccn2)cc1` (stereo not shown) [Example 67A, (3-(4-(1H-Pyrazol-1-yl)benzyl)-4-chloro-2-(methoxy(methyl)amino)quinolin-6-yl)(1-methyl-1H-imidazol-5-yl)(6-(trifluoromethyl)pyridin-3-yl)methanol TFA?], the Kd in assay [2] was 0.018 µM. Besides, on human RORγt LBD, the IC50 was determined as 0.044 µM and the inhibition at 6 µM worked out at 115%.
Consider `COc1nc2ccc(C(O)(c3ccc(Cl)cc3)c3cncn3C)cc2c(C#N)c1Cc1ccc(-n2cccn2)cc1` (stereo not shown) [Example 69, 3-(4-(1H-Pyrazol-1-yl)benzyl)-6-((4-chlorophenyl)(hydroxy)(1-methyl-1H-imidazol-5-yl)methyl)-2-methoxyquinoline-4-carbonitrile], for which the dissociation constant (Kd) in assay [2] was 0.05 µM. Also, on human RORγt LBD, the IC50 came to 0.17 µM and the inhibition at 6 µM was determined as 103%.
With `COc1nc2c(F)cc(C(O)(c3ccc(C(F)(F)F)nc3)c3cncn3C)cc2c(Cl)c1Cc1ccc(-n2cccn2)cc1` (single isomer, unassigned) [Example 58C, (3-(4-(1H-pyrazol-1-yl)benzyl)-4-chloro-8-fluoro-2-methoxyquinolin-6-yl)(1-methyl-1H-imidazol-5-yl)(6-(trifluoromethyl)pyridin-3-yl)methanol], in assay [2], the Kd is 0.27 µM. In addition, at human RORγt LBD, the “RORγt reporter Assay, % inhibition @ 6 μM” value worked out at 109% and the IC50 was found to be 0.66 µM.
On to `Cn1cc(C(O)(c2ccc(Cl)cc2)c2ccc3nc(Cl)c(Cc4ccccc4)c(Cl)c3c2)cn1` (stereo not shown) [Example 49, (3-Benzyl-2,4-dichloroquinolin-6-yl)(4-chlorophenyl)(1-methyl-1H-pyrazol-4-yl)methanol.TFA], for which, in assay [2], the Kd is 0.33 µM. At human RORγt LBD, the IC50 amounted to 1.8 µM and the inhibition at 6 µM came out at 77%.
For `Cn1cncc1C(O)(c1ccc(Cl)cc1)c1ccc2nc(O)c(Cc3ccc(-n4cccn4)cc3)c(Cl)c2c1` (single isomer, unassigned) [Example 55B, 3-(4-(1H-pyrazol-1-yl)benzyl)-4-chloro-6-((4-chlorophenyl)(hydroxy)(1-methyl-1H-imidazol-5-yl)methyl)quinolin-2-ol] the same measures were greater than 81 µM, 2.4 µM and 85%.
For `COc1nc2ccc(C(O)(c3ccc(C#N)cc3)c3cncn3C)cc2c(C#N)c1Cc1ccc(C(F)(F)F)cc1` (stereo not shown) [Example 96A, 6-((4-cyanophenyl)(hydroxy)(1-methyl-1H-imidazol-5-yl)methyl)-2-methoxy-3-(4-(trifluoromethyl)benzyl)quinoline-4-carbonitrile] the same measures were 0.0019 µM, 0.0078 µM and 99%.
Take `COc1nc2ccc(C(O)(c3ccc(C#N)cc3)c3cncn3C)cc2c(C#N)c1Cc1ccc(-n2cccn2)cc1` (single isomer, unassigned) [Example 76B, 3-(4-(1H-Pyrazol-1-yl)benzyl)-6-((4-cyanophenyl)(hydroxy)(1-methyl-1H-imidazol-5-yl)methyl)-2-methoxyquinoline-4-carbonitrile]: the Kd in assay [2] is 0.076 µM. For the same compound, at human RORγt LBD, the IC50 amounted to 0.12 µM and the inhibition at 6 µM came out at 102%.
Regarding `CCN(CC)c1nc2ccc(C(O)(c3ccc(Cl)cc3)c3cncn3C)cc2c(Cl)c1Cc1ccc(-n2cccn2)cc1` (single isomer, unassigned) [Example 75B, (3-(4-(1H-Pyrazol-1-yl)benzyl)-4-chloro-2-(diethylamino)quinolin-6-yl)(4-chlorophenyl)(1-methyl-1H-imidazol-5-yl)methanol], the Kd in assay [2] is 8.6 µM. Also, on human RORγt LBD, the “RORγt reporter Assay, % inhibition @ 6 μM” value is 39% and the IC50 is greater than 6 µM.
